Measured values published in the supplement of paper PMC10307832.

Experiments:
Assay in all cases: relative viability (nuclei count vs DMSO), 5 days (fraction); higher = more cells survive
[1] = compound: CC(C)C[C@H](NC(=O)[C@H](CCc1ccccc1)NC(=O)CN1CCOCC1)C(=O)N[C@@H](Cc1ccccc1)C(=O)N[C@@H](CC(C)C)C(=O)[C@@]1(C)CO1 [Carfilzomib] + NC(=O)Nc1cc(-c2cccc(F)c2)sc1C(=O)N[C@H]1CCCNC1 [AZD7762] (partner 0.2 µM)
How it was run: (§1)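 One day after seeding in 1536-well plates, lung cancer cell lines were dosed by pin tool. Dosing was either single-drug or a fixed anchor-drug dose plus five library-drug doses (not always all listed) in √10 steps. After 5 days, nuclei were stained in one fix-and-stain step and counted on 4× images, and relative viability is the nuclei count of treated wells over that of vehicle wells, given as the median of duplicate plates.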

[2] = compound: CC(C)C[C@H](NC(=O)[C@H](CCc1ccccc1)NC(=O)CN1CCOCC1)C(=O)N[C@@H](Cc1ccccc1)C(=O)N[C@@H](CC(C)C)C(=O)[C@@]1(C)CO1 [Carfilzomib] + CC(C)C[C@H](NC(=O)[C@H](Cc1ccccc1)NC(=O)c1cnccn1)B(O)O [Bortezomib] (partner 0.002 µM)
How it was run: as §1

[3] = compound: O=C(c1cc(Cc2n[nH]c(=O)c3ccccc23)ccc1F)N1CCN(C(=O)C2CC2)CC1 [Olaparib] + O=C(CCCCCCC(=O)Nc1ccccc1)NO [Vorinostat] (partner 1 µM)
How it was run: as §1

[4] = compound: C[C@@H](Oc1cc(-c2cnn(C3CCNCC3)c2)cnc1N)c1c(Cl)ccc(F)c1Cl [Crizotinib] + CC(C)C[C@H](NC(=O)[C@H](Cc1ccccc1)NC(=O)c1cnccn1)B(O)O [Bortezomib] (partner 0.002 µM)
How it was run: as §1

Cell Line	relative viability ([1]; first compound 0.001 µM)	relative viability ([1]; first compound 0.003162 µM)	relative viability ([1]; first compound 0.01 µM)	relative viability ([1]; first compound 0.03162 µM)	relative viability ([1]; first compound 0.1 µM)	relative viability ([2]; first compound 0.001 µM)	relative viability ([2]; first compound 0.003162 µM)	relative viability ([2]; first compound 0.01 µM)	relative viability ([2]; first compound 0.03162 µM)	relative viability ([2]; first compound 0.1 µM)	relative viability ([3]; first compound 0.08 µM)	relative viability ([3]; first compound 0.253 µM)	relative viability ([3]; first compound 2.53 µM)	relative viability ([3]; first compound 8 µM)	relative viability ([4]; first compound 0.01 µM)	relative viability ([4]; first compound 0.03162 µM)	relative viability ([4]; first compound 0.1 µM)	relative viability ([4]; first compound 0.3162 µM)	relative viability ([4]; first compound 1 µM)
LOU-NH91	0.741	0.778	0.679	0.309	0.329	0.438	0.49	0.362	0.26	0.263	1.17	0.904	0.939	0.983	0.457	0.465	0.451	0.484	0.458
NCI-H1755	0.476	0.502	0.496	0.435	0.409	0.929	1.02	0.685	0.282	0.221	0.748	0.588	0.704	0.637		0.964	0.923	0.87	0.991
NCI-H647	0.385	0.468	0.29	0.0154	0.0223	0.674	0.72	0.154	0.0243	0.0299	0.585	0.504	0.6	0.271	0.638	1.01	0.827	0.94	0.943
LCLC-103H	0.767	0.849	0.759	0.778	0.402	1	1.14	0.678	0.294	0.27	0.936	0.762	0.801	0.678	1.06	1.04	1.11	1.09	1.16
NCI-H1437	1.07	1.13	1.13	1.14	0.478	0.473	0.5	0.437	0.176	0.13	0.945	0.746	0.695	0.639	0.48	0.553	0.558	0.434	0.494
NCI-H2170	0.846	0.963	1.02	0.734	0.238						0.811	0.754	0.748	0.748					
HCC-15	1.12	1.29	1.31	1.12	0.453	0.979	0.978	1.01	0.481	0.0765	0.956	0.819	0.83	0.687	0.916		1.06	0.826	0.891
NCI-H1648	0.657	0.621	0.603	0.407	0.268						0.392	0.477		0.37					
NCI-H661						0.801	0.965	0.842	0.384	0.214	0.885	0.715	0.692	0.551	0.759	0.768	0.72	0.777	0.817
NCI-H650	0.862	1.1	0.964	0.88	0.23	0.587	0.701	0.619	0.145	0.157	0.431	0.37	0.377	0.238	0.769	0.655	0.806	0.613	0.671
RERF-LC-KJ	0.827	1.11	1.24	0.927	0.309	0.994	1.05	0.926	0.47	0.258	0.79	0.644	0.748	0.633	1.02	0.951	1.1	1	1.09
SK-LU-1						0.878	1.19	0.797	0.195	0.237	0.847	0.705	0.726	0.545	1.19	1.13	1.46	0.794	1.3
NCI-H1792		0.96	0.742	0.38	0.0881	0.962	1	0.919	0.979	0.559					0.955	0.983	1.01	0.931	0.917
NCI-H1666	0.837	0.935	1.1	0.704	0.475	0.987	0.888	0.771	0.188	0.218	1.06	0.957	0.981	0.836	0.791	0.981	0.829	0.796	0.912
SK-MES-1											1.04	0.985	1.06	0.914					
NCI-H1915	0.61	0.711	0.57	0.414	0.125	0.906	0.849	1.03	0.142	0.0581	0.495	0.438	0.373	0.281	0.98	0.921	1.06		0.963
SW 1573						0.986	0.959	0.546	0.114	0.0592	1.08	0.693	0.711	0.489		1.04	1.04	1.19	0.836
NCI-H2087	1.21	1.31	0.946	0.515	0.0622	0.803	0.793	0.202	0.0909	0.101	0.834	0.761	0.658	0.546	0.773	1.12	0.952	0.685	0.808
BEN	0.717	0.619	0.657	0.59	0.409	0.518	0.929	0.883	0.485	0.281	0.625	0.606	0.582	0.566	0.862	0.788		0.815	0.78
